One block for each compound: values may come before it.
Legend:
MCF7 = assay: MTT assay, MCF7 breast cancer cells; assay type: cell-based
Text: (§1) An MTT assay was used to evaluate the final compounds’ anticancer activity against MCF7 and T47D (breast cancer cells), HSC3 (head and neck cancer cells), and RKO (colorectal cancer cells) cell lines, using cisplatin as a reference standard. Table 1 presents the percentage growth inhibition of all compounds against the various cancer cell lines.
(§2) The cancer cell lines MCF7 and T47D (breast cancer cells), HSC3 (head and neck cancer cells), and RKO (colorectal cancer cells) were kindly provided by Prof. Stephan Feller, Institute of Molecular Medicine, Martin Luther University, Halle, Germany. The human fibroblast (PDL) cell line was obtained as a kind gift from Prof. Khaled Al-Qaoud (Yarmouk University, Irbid, Jordan). All cell lines were cultured in Dulbecco’s Modified Eagle’s Medium (DMEM) supplemented with 10% fetal bovine serum, 100 µg/mL streptomycin, 100 U/mL penicillin, and 1% non-essential amino acid at 37 °C with 5% CO2 in a humidified CO2 incubator. The cell cultures were grown to confluence, and the medium was changed two times weekly.
(§3) The MTT (3-[4,5-dimethylthiazol-2-yl]-2,5-diphenyl tetrazolium bromide) assay was used to investigate cell viability and to calculate the half-maximal inhibitory concentration (IC50) values of the compounds 6(a–k) including standard reference cisplatin. Furthermore, […] stock solutions of the compounds were prepared in DMSO where all compounds were completely soluble. Cells were seeded in 96-well tissue culture plates at a density of 6,000 cells/well for MCF7, T47D, and PDL cells and at a density of 4000 cells/well for RKO and HSC3 cells. After 24 h of seeding, investigated cells were treated with three concentrations (1, 10, and 100 µm) of the compounds for 72 h. At the end of the treatment time, the supernatant medium was aspirated, and 50 µL of fresh DMEM containing MTT (0.5 mg/mL) was added to each well. Cells were then incubated at 37 °C for 2–4 h. After that, the medium was completely removed, and 50 µL of DMSO was added to each well to dissolve the precipitated formazan crystals formed by viable cells. Cell viability, represented by the absorbance of the formazan solution, was measured at 570 nm using the Synergy HTX Multimode Reader (BioTek, Vermont, USA), and cell viability was determined as described in the literature. For each concentration, the relative cell viability was calculated as follows: relative cell viability = (mean treatment absorbance/mean control absorbance) × 100%. Assays were performed in triplicate on three independent experiments. […] IC50 values were then calculated using the four-parameter logistic function in the SigmaPlot software (version 12.5) and presented as the mean ± SD from three independent experiments.

T47D = assay: MTT assay, T47D breast cancer cells; assay type: cell-based; settings: Homo sapiens, 72 h
Text: as §1, §2, §3

HSC3 cells [1] = assay: Apoptosis evaluation by Annexin V/PI staining, HSC3; assay type: cell-based; settings: HSC3, IC50 concentration, 72 h
Method: (§4) To further examine the processes responsible for reduced cell viability, apoptosis was evaluated by Annexin V/Propidium Iodide (PI) double staining, as outlined in the experimental section by considering the best active compound 6i. […] Annexin V/PI staining detects very little increase in Annexin-positive cells; 6i-treated cells were stained with Annexin V and PI for fluorescence-activated cell sorting (FACS) analysis. The results establish that 6i may promote cell death by processes distinct from apoptosis, deserving further investigation into alternative pathways, such as autophagy or ferroptosis.
(§5) Floating dead cells and the attached cells were collected, washed with PBS, and resuspended in 100 μL of Annexin V solution for 30 min according to the manufacturer’s instruction (Annexin V-FITC Kit, Miltenyi Biotec, Gaithersburg, MD, USA, Catalog Number 130-092-052). After Annexin V staining, cells were stained shortly with PI to exclude the dead cells. The quantitative analysis for apoptosis was performed by FACS Accuri C6 Plus (BD BIOSCIENCES, Franklin Lakes, NJ, USA) flow cytometer. About 10,000 events were analyzed using the FlowJo software (version 10).

RKO = assay: MTT assay, RKO colorectal cancer cells; assay type: cell-based; settings: Homo sapiens, 72 h
Text: as §1, §2, §3

HSC3 = assay: MTT assay, HSC3 head and neck cancer cells; assay type: cell-based
Text: as §1, §2, §3

RKO cells [2] = assay: Apoptosis evaluation by Annexin V/PI staining, RKO; assay type: cell-based; settings: IC50 concentration, 72 h
Method: as §4, §5

PDL = assay: MTT assay, normal fibroblast cell line (PDL); assay type: cell-based, human; settings: 72 h
Text: To understand the selectivity of compounds, a normal fibroblast cell line (human periodontal ligament-PDL) is also included in this IC50 determination.
as §2, §3

RKO cells [3] = assay: Cell cycle analysis (PI staining), RKO; assay type: cell-based; settings: IC50 concentration, 72 h
Method: (§6) In a subsequent set of experiments, we aimed to evaluate the effect of compound 6i on the cell cycle. Treatment with 6i led to a significant accumulation of HSC3 and RKO cells in the G2 phase (HSC3: control, 34.6% ± 3.2% vs. 6i, 46.4% ± 3.6%; RKO: control, 34.5% ± 2.9% vs. 6i, 64.2% ± 3.5%).
(§7) The supernatant with the floating dead cells and the attached cells from each well were collected and fixed in cold ethanol at −20 °C for 30 min [69]. Cells were stained with a Propidium iodide (PI) working solution (1 µg/mL PI and 10 µg/mL RNase A in PBS) for 30 min at 37 °C in the dark and then washed with PBS. Cell fluorescence was measured using the FACS Accuri C6 Plus (BD BIOSCIENCES, Franklin Lakes, NJ, USA) flow cytometer. Histograms of cell counts versus […] fluorescence were generated, and the distribution of cells throughout several cell cycle stages was assessed based on the mean fluorescence intensity values. About 10,000 events were examined utilizing FlowJo software (version 10).

HSC3 cells [4] = assay: Cell cycle analysis (PI staining), HSC3; assay type: cell-based; settings: HSC3, IC50 concentration, 72 h
Method: as §6, §7

Hsp90 = tested on: Hsp90; parameters: method as in PMID 20371713; settings: against breast cancer; read-out: Hsp90 inhibition IC50; cited from earlier work
[5] = 1 µM, read-out: % cell growth inhibition
[6] = 10 µM, read-out: % cell growth inhibition
[7] = 100 µM, read-out: % cell growth inhibition

IC50 (MCF7; Homo sapiens, MCF7, 72 h): 16.4 ± 0.2 µM | IC50 (T47D): 11.7 ± 1.1 µM | IC50 (RKO): 12.4 ± 1.9 µM | IC50 (HSC3; Homo sapiens, HSC-3, HSC3, 72 h): 10.8 ± 3.9 µM
Compound: CCOC(=O)c1c(NC(=O)CN2CCSCC2)sc2c1CCN(C(=O)OCC)C2 [6i, Diethyl 2-(2-thiomorpholinoacetamido)-4,7-dihydrothieno[2,3-c]pyridine-3,6(5H)-dicarboxylate]
inhibition at 1 µM (MCF7; Homo sapiens, MCF7, 1 µM, 72 h, read-out: % cell growth inhibition): 1.53% | inhibition at 10 µM (MCF7; Homo sapiens, MCF7, 10 µM, 72 h, read-out: % cell growth inhibition): 39.1% | inhibition at 100 µM (MCF7; Homo sapiens, MCF7, 100 µM, 72 h, read-out: % cell growth inhibition): 95.3% | % cell growth inhibition (MCF7; MCF7, 1 µM, 72 h): weak inhibition | inhibition at 1 µM (T47D; [5]): 1.9% | inhibition at 10 µM (T47D; [6]): 35.3% | inhibition at 100 µM (T47D; [7]): 83.9% | proportion of apoptotic cells with positive Annexin V staining (HSC3 cells [1]): significantly lower | inhibition at 1 µM (RKO; [5]): 5.17% | inhibition at 10 µM (RKO; [6]): 55.4% | inhibition at 100 µM (RKO; [7]): 92.5% | % cell growth inhibition (HSC3; HSC3, 100 µM, 72 h, 100 µM): 94.04% | inhibition at 1 µM (HSC3; Homo sapiens, HSC-3, 72 h, HSC3, 1 µM, 72 h, read-out: % cell growth inhibition): 14.8% | inhibition at 10 µM (HSC3; Homo sapiens, HSC-3, 72 h, HSC3, 10 µM, 72 h, read-out: % cell growth inhibition): 62.3% | inhibition at 100 µM (HSC3; Homo sapiens, HSC-3, 72 h, HSC3, 100 µM, 72 h, read-out: % cell growth inhibition): 94% | proportion of apoptotic cells with positive Annexin V staining (RKO cells [2]): significantly lower | IC50 (PDL; Homo sapiens, Fibroblast, PDL normal fibroblasts): > 100 µM | toxicity to normal fibroblast cell lines, PDL (PDL; PDL): no toxicity | cells in the G2 phase (RKO cells [3]; control 34.5% ± 2.9%): 64.2% ± 3.5% | proportion of cells in the G1 and S phases (RKO cells [3]; vs control): markedly reduced | proportion of cells in the G1 and S phases (HSC3 cells [4]; vs control): markedly reduced | cells in the G2 phase (HSC3 cells [4]; control 34.6% ± 3.2%): 46.4% ± 3.6%

Compound: CCNC(=O)c1cc2c(-c3cc(OCCN4CCCC4)c(Cl)cc3Cl)nc(N)nc2s1 [NVP-BEP800]
IC50 (Hsp90): 0.058 µM

Source: publication PMC11858597, “Synthesis, Anticancer Screening, and In Silico Evaluations of Thieno[2,3-c]pyridine Derivatives as Hsp90 Inhibitors” (Pharmaceuticals, 2025)
